How the values were obtained:
NF-κB = NF-κB gel shift binding assay in TPA-stimulated RBL-2H3 cells; assay type: cell-based; settings: Rattus norvegicus, compound 1 μM, 2 hours preincubation, read-out: Percent Inhibition of Response to TPA (0.1 μM)
sensitized guinea pigs = assay: allergen-induced changes in lung resistance and compliance in vivo; set-up: species or system guinea pig
Protocol: Female Cam Hartley guinea pigs (350-400 g) are sensitized to ovalbumin by exposure of the guinea pigs to a nebulized solution of 1% ovalbumin in saline for 15 minutes. After 10-12 days, the animals are found to be acutely sensitized to the allergen (ovalbumin). Animals are treated by oral gavage, under light halothane anesthesia, with 300 μl polyethyleneglycol-200 (PEG) or 5 mg/Kg of test compound in 300 μl of PEG. Animals are treated once daily for 4 days with the final dose administered 2 hours prior to allergen challenge. Alternatively, compounds were delivered by inhalation, using a Hudson nebulizer driven by 6 psi oxygen, providing a single dose of 50 μg/Kg 20 min prior to challenge.
An animal is anaesthetized using ketamine ([…]; i.p.) and xylazine (10 mg/Kg; i.p.) and 1% halothane during the surgical procedure. A tracheostomy is performed and a water-filled esophageal cannula is inserted prior to positioning the animal in a body plethysmograph. The tracheal cannula is attached to a fixed tracheal cannula in the plethysmograph. Cardiac function is monitored using electrocardiography. The animal is paralyzed using pancuronium bromide (0.8 mg/Kg; i.m.) and ventilated with 3 ml tidal breaths using a Harvard small animal ventilator, at a frequency of 60 breaths per minute. Pulmonary resistance and dynamic lung compliance data are obtained from volume, flow and transpulmonary pressure signals using multipoint analysis.
Pulmonary function is continually monitored throughout the experiment and measurements of lung resistance and lung compliance are made at various time-points (e.g., 0, 1, 2, 3, 4, 5, 10, 20 and 30 min) following antigen challenge. Data is collected on a computer-linked physiological measurement system using DIREC Physiological recording software and analyzed using ANADAT software designed for lung mechanics measurements. This software was obtained from RHT-InfoDat Inc., Montreal, Quebec, Canada.
Once baseline resistance and compliance measurements are obtained, the animal is challenged with 6 breaths of saline. After 10 minutes, during which time no alterations in lung function should occur, the animal is challenged with 6 breaths of 2 or 3% ovalbumin in saline (as the antigen stimulus). Saline and antigen are delivered in each breath using a Hudson nebulizer.

[1] = tested on: Ascaris suum sensitized sheep; assay: allergic sheep model of asthma; assay type: in vivo
Protocol: The model is conscious, where the animals are breathing spontaneously, allowing measurement of airways bronchoconstriction and acute airway hyperresponsiveness.
Sheep which were naturally sensitized to Ascaris suum (30-40 Kg) were intubated with an endotracheal tube and a balloon catheter, positioned in the lower esophagus. Pleural pressure was estimated with the esophageal catheter, while later pressure was measured with a side-hole catheter advanced through and positioned distal to the tip of the endotracheal tube. Transpulmonary pressure differences between the trachea and pleural pressures were measured with a differential pressure transducer catheter system.
The proximal end of the endotracheal tube was connected to a Fleisch pneumotachograph in order to measure flow changes. Pulmonary resistance (RL) was calculated from pressure measurements of transpulmonary pressure, respiratory volume (from digital integration of the flow signal) and flow by the mid-flow technique. SRL was calculated as RL Vtg (Vtg=thoracic gas volume).
Aerosols generated using a disposable nebulizer, were directed into a T-piece connected to a Harvard respirator and the tracheal tube in series. The aerosol delivery was controlled using a dosimeter system, consisting of a solenoid valve and compressed air (20 psi) activated at the start of each inspiratory cycle. Aerosols were delivered in tidal volumes of 500 ml at […].
Selected compounds from the invention were dissolved as a stock solution in DMSO and diluted in saline. Animals received either, 400 μg/Kg of compound 30 min prior to challenge and 4 hours after challenge, or 400 μg/Kg of compound for 4 days with the last dose 2 hours before challenge. Ascaris suum extract was diluted in phosphate buffered saline to a concentration of 82000 protein nitrogen units/ml and delivered by aerosol over 20 min. Carbachol was dissolved in PBS to concentrations of 0.25, 0.5 1.0, 2.0, 4.0% wt/vol. Each animal served as its own control throughout the study.
Specific lung resistance (SRL) was measured every 60 min for 8 hours after antigen challenge. Airways hyperresponsiveness to carbachol was measured 24 hours after the initial challenge.

[2] = 5 mg/kg/day for 4 days p.o., 1 min after challenge
[3] = 5 mg/kg/day for 4 days p.o., 3 min after challenge
[4] = 5 mg/kg/day for 4 days p.o., 4 min after challenge
[5] = 5 mg/kg/day for 4 days p.o., 5 min after challenge
[6] = 5 mg/kg/day for 4 days p.o., 10 min after challenge
[7] = 5 mg/kg/day for 4 days p.o., 20 min after challenge
[8] = 5 mg/kg/day for 4 days p.o., 30 min after challenge
[9] = 5 mg/kg/day for 4 days p.o., Baseline
[10] = 5 mg/kg/day for 4 days p.o., OA/10 s
[11] = 400 μg/kg/day for 4 days, inhalation, Baseline

C/C=C1/CCC2C3C(CC[C@]12C)[C@@]1(C)CC[C@@H](O)CC1[C@@H](O)[C@@H]3O (stereo partly drawn) [Compound 330, 3α,6α,7β-trihydroxy-17(20)-pregnene]
inhibition at 1 µM (NF-κB): 66% | Lung Resistance (sensitized guinea pigs; 50 μg/kg inhalation, 3 min after challenge): 0.420 ± 0.051 cm H2O/ml/sec | Lung Compliance (sensitized guinea pigs; 50 μg/kg inhalation, 4 min after challenge): 0.145 ± 0.046 ml/cm H2O | Lung Compliance (sensitized guinea pigs; [2]): 0.182 ± 0.093 ml/cm H2O | Lung Resistance (sensitized guinea pigs; [2]): 0.560 ± 0.101 cm H2O/ml/sec | Lung Resistance (sensitized guinea pigs; 5 mg/kg/day for 4 days p.o., 2 min after challenge): 0.845 ± 0.201 cm H2O/ml/sec | Lung Compliance (sensitized guinea pigs; [3]): 0.133 ± 0.095 ml/cm H2O | Lung Resistance (sensitized guinea pigs; [3]): 0.887 ± 0.160 cm H2O/ml/sec | Lung Compliance (sensitized guinea pigs; [4]): 0.124 ± 0.088 ml/cm H2O | Lung Resistance (sensitized guinea pigs; [4]): 0.778 ± 0.119 cm H2O/ml/sec | Lung Compliance (sensitized guinea pigs; [5]): 0.125 ± 0.087 ml/cm H2O | Lung Resistance (sensitized guinea pigs; [5]): 0.791 ± 0.139 cm H2O/ml/sec | Lung Compliance (sensitized guinea pigs; [6]): 0.150 ± 0.082 ml/cm H2O | Lung Resistance (sensitized guinea pigs; [6]): 0.661 ± 0.141 cm H2O/ml/sec | Lung Compliance (sensitized guinea pigs; [7]): 0.184 ± 0.061 ml/cm H2O | Lung Resistance (sensitized guinea pigs; [7]): 0.366 ± 0.046 cm H2O/ml/sec | Lung Compliance (sensitized guinea pigs; [8]): 0.196 ± 0.061 ml/cm H2O | Lung Resistance (sensitized guinea pigs; [8]): 0.340 ± 0.037 cm H2O/ml/sec | Lung Compliance (sensitized guinea pigs; [9]): 0.318 ± 0.042 ml/cm H2O | Lung Resistance (sensitized guinea pigs; [9]): 0.275 ± 0.036 cm H2O/ml/sec | Lung Compliance (sensitized guinea pigs; [10]): 0.435 ± 0.041 ml/cm H2O | Lung Resistance (sensitized guinea pigs; [10]): 0.260 ± 0.036 cm H2O/ml/sec | PC400 Hyperresponsiveness to carbachol ([1]; 400 μg/kg inhalation 30 min prior to and 4 hours after challenge, Baseline): 26.01 ± 3.06 Breath Units | PC400 Hyperresponsiveness to carbachol ([1]; 400 μg/kg inhalation 30 min prior to and 4 hours after challenge, Post-Challenge (24 hours)): 22.79 ± 6.11 Breath Units | Specific Lung Resistance ([1]; 400 μg/kg inhalation 30 min prior to and 4 hrs after challenge, 1 hr): 117 ± 11 % Baseline | Specific Lung Resistance ([1]; 400 μg/kg inhalation 30 min prior to and 4 hrs after challenge, 2 hr): 49 ± 11 % Baseline | Specific Lung Resistance ([1]; 400 μg/kg inhalation 30 min prior to and 4 hrs after challenge, 3 hr): 32 ± 6 % Baseline | Specific Lung Resistance ([1]; 400 μg/kg inhalation 30 min prior to and 4 hrs after challenge, 4 hr): 20 ± 6 % Baseline | Specific Lung Resistance ([1]; 400 μg/kg inhalation 30 min prior to and 4 hrs after challenge, 5 hr): 14 ± 4 % Baseline | Specific Lung Resistance ([1]; 400 μg/kg inhalation 30 min prior to and 4 hrs after challenge, 6 hr): 14 ± 5 % Baseline | Specific Lung Resistance ([1]; 400 μg/kg inhalation 30 min prior to and 4 hrs after challenge, 6.5 hr): 18 ± 6 % Baseline | Specific Lung Resistance ([1]; 400 μg/kg inhalation 30 min prior to and 4 hrs after challenge, 7 hr): 10 ± 2 % Baseline | Specific Lung Resistance ([1]; 400 μg/kg inhalation 30 min prior to and 4 hrs after challenge, 7.5 hr): 17 ± 8 % Baseline | Specific Lung Resistance ([1]; 400 μg/kg inhalation 30 min prior to and 4 hrs after challenge, 8 hr): 5 ± 3 % Baseline | Specific Lung Resistance ([1]; 400 μg/kg inhalation 30 min prior to and 4 hrs after challenge, Baseline): 2 ± 5 % Baseline | Specific Lung Resistance ([1]; 400 μg/kg inhalation 30 min prior to and 4 hrs after challenge, Challenge (0)): 268 ± 35 % Baseline | Specific Lung Resistance ([1]; 400 μg/kg inhalation 30 min prior to and 4 hrs after challenge, −0.5 hr): 0 ± 4 % Baseline | Specific Lung Resistance ([1]; 400 μg/kg/day for 4 days, inhalation, 1 hr): 34.00 ± 10.75 % Baseline | Specific Lung Resistance ([1]; 400 μg/kg/day for 4 days, inhalation, 2 hr): 11.50 ± 6.18 % Baseline | Specific Lung Resistance ([1]; 400 μg/kg/day for 4 days, inhalation, 3 hr): −15.00 ± 37.67 % Baseline | Specific Lung Resistance ([1]; 400 μg/kg/day for 4 days, inhalation, 4 hr): 4.00 ± 1.78 % Baseline | Specific Lung Resistance ([1]; 400 μg/kg/day for 4 days, inhalation, 5 hr): −4.50 ± 4.17 % Baseline | Specific Lung Resistance ([1]; 400 μg/kg/day for 4 days, inhalation, 6 hr): 7.75 ± 9.75 % Baseline | Specific Lung Resistance ([1]; 400 μg/kg/day for 4 days, inhalation, 6.5 hr): 5.50 ± 4.87 % Baseline | Specific Lung Resistance ([1]; 400 μg/kg/day for 4 days, inhalation, 7 hr): 10.75 ± 4.91 % Baseline | Specific Lung Resistance ([1]; 400 μg/kg/day for 4 days, inhalation, 7.5 hr): 4.00 ± 2.35 % Baseline | Specific Lung Resistance ([1]; 400 μg/kg/day for 4 days, inhalation, 8 hr): 3.25 ± 4.73 % Baseline | PC400 Hyperresponsiveness to carbachol [1, 11]: 21.26 ± 2.75 Breath Units | Specific Lung Resistance [1, 11]: 5.25 ± 4.50 % Baseline | Specific Lung Resistance ([1]; 400 μg/kg/day for 4 days, inhalation, Challenge (0)): 126.00 ± 19.11 % Baseline | PC400 Hyperresponsiveness to carbachol ([1]; 400 μg/kg/day for 4 days, inhalation, Post-Challenge (24 hours)): 21.21 ± 3.10 Breath Units | Specific Lung Resistance ([1]; 400 μg/kg/day for 4 days, inhalation, −0.5 hr): −3.75 ± 4.29 % Baseline

— patent US6949533B2, “6,7-Oxygenated steroids and uses related thereto” (Inflazyme Pharmaceuticals Ltd., priority 1996, dated 2005)
